Test results: ChEMBL document CHEMBL5550217, “Discovery of gem-Dimethyl-hydroxymethylpyridine Derivatives as Potent Non-nucleoside RSV Polymerase Inhibitors” (J Med Chem, 2024)
Activity calls are given as the source filed them. The rule behind the calls is not given here.

Assays:
Human orthopneumovirus [1] = assay: In vivo antiviral activity against Human respiratory syncytial virus (RSV) M37 infected in lamb model assessed as reduction in BALF peak viral titer in lung treated orally QD from 1 until 5 day post infection; type: functional, organism-based; details: dose 0.4-4 mg/kg, route po
[2] = Oral bioavailability in Beagle dog at 0.5 mg/kg measured upto 24 hrs by LC-MS/MS analysis; type: ADME, organism-based, Canis lupus familiaris; details: in vivo
Human orthopneumovirus [3] = assay: In vivo antiviral activity against Human respiratory syncytial virus (RSV) M37 infected in lamb model assessed as reduction in RSV cells in lung at 0.25 to 4 mg/kg, po QD from 1 until 5 day post infection by branched DNA technology (RNAscope); type: functional, organism-based; details: dose 0.25-4 mg/kg
Human orthopneumovirus [4] = assay: In vivo antiviral activity against Human respiratory syncytial virus (RSV)-A2 intranasally infected in BALB/c mouse assessed as reduction in viral RNA level in lung treated orally QD 1 hr prior infection until 3 day post infection by qRT-PCR analysis; type: functional, organism-based; details: dose 1-100 mg/kg, route po
[5] = Half life in Beagle dog at 0.5 mg/kg, iv measured upto 24 hrs by LC-MS/MS analysis; type: ADME, organism-based, Canis lupus familiaris; details: in vivo
[6] = AUC (0 to last) in Beagle dog at 0.5 mg/kg, po measured upto 24 hrs by LC-MS/MS analysis; type: ADME, organism-based, Canis lupus familiaris; details: in vivo
[7] = Apparent permeability across apical to basolateral side in dog MDCK-MDR1 cells at 5 uM measured after 60 mins; type: ADME, cell-based, Canis lupus familiaris
[8] = Clearance in Beagle dog at 0.5 mg/kg, iv measured upto 24 hrs by LC-MS/MS analysis; type: ADME, organism-based, Canis lupus familiaris; details: in vivo
[9] = Inhibition of RSV RNA polymerase assessed as RNA products using […] template by SPA primer extension enzymatic assay; set-up: species or system Respiratory syncytial virus
[10] = Cytotoxicity against human HeLa cells measured after 3 days by ATPlite kit assay; type: toxicity, cell-based; details: time 3 day
[11] = Metabolic stability in rat hepatocytes assessed as intrinsic clearance per 10^6 cells at 1 uM measured upto 180 mins by LC-MS/MS analysis; type: ADME, cell-based, Hepatocyte; details: read-out: CLH
[12] = Plasma protein binding in dog assessed as free fraction; type: ADME, cell-free, Canis lupus familiaris
[13] = Metabolic stability in human hepatocytes assessed as intrinsic clearance per 10^6 cells at 1 uM measured upto 180 mins by LC-MS/MS analysis; type: ADME, cell-based, Hepatocyte; details: read-out: CLH
Human orthopneumovirus [14] = assay: In vivo antiviral activity against Human respiratory syncytial virus (RSV) M37 infected in lamb model assessed as reduction in microscopic lesions in lung at 1 to 4 mg/kg, po QD from 1 until 5 day post infection; type: functional, organism-based; details: dose 1-4 mg/kg
[15] = Clearance in Sprague-Dawley rat at 1.25 mg/kg, iv measured upto 24 hrs by LC-MS/MS analysis; type: ADME, organism-based; details: in vivo
[16] = Clearance in Balb/c mouse at 2.5 mg/kg, iv measured upto 24 hrs by LC-MS/MS analysis; type: ADME, organism-based; details: in vivo
Human orthopneumovirus [17] = assay: In vivo antiviral activity against Human respiratory syncytial virus (RSV) M37 infected in lamb model assessed as reduction in gross lesions in lung at 1 to 4 mg/kg, po QD from 1 until 5 day post infection; type: functional, organism-based; details: dose 1-4 mg/kg
[18] = Metabolic stability in mouse hepatocytes assessed as intrinsic clearance per 10^6 cells at 1 uM measured upto 180 mins by LC-MS/MS analysis; type: ADME, cell-based, Hepatocyte; details: read-out: CLH
[19] = Cmax in Balb/c mouse at 10 mg/kg, po measured upto 24 hrs by LC-MS/MS analysis; type: ADME, organism-based; details: in vivo
[20] = Half life in Sprague-Dawley rat at 1.25 mg/kg, iv measured upto 24 hrs by LC-MS/MS analysis; type: ADME, organism-based; details: in vivo
[21] = Plasma protein binding in mouse assessed as free fraction; type: ADME, cell-free
[22] = test system: Respiratory syncytial virus; assay: Antiviral activity against Respiratory syncytial virus (RSV)-A2-eGFP infected in human HeLa cells assessed as eGFP expression measured after 3 days by RSV Cell-based infection assay; type: functional, organism-based; details: 72 h
Human orthopneumovirus [23] = assay: In vivo antiviral activity against Human respiratory syncytial virus (RSV) M37 infected in lamb model assessed as reduction in viral titer in lung treated orally QD from 1 until 5 day post infection; type: functional, organism-based; details: dose 0.4-4 mg/kg, route po
P-glycoprotein = assay: Efflux ratio of permeability in dog MDCK-MDR1 cells assessed as P-glycoprotein mediated efflux; type: ADME, cell-based, Canis lupus familiaris
[24] = Plasma protein binding in rat assessed as free fraction; type: ADME, cell-free
Human orthopneumovirus [25] = assay: In vivo antiviral activity against Human respiratory syncytial virus (RSV)-A2 intranasally infected in BALB/c mouse assessed as reduction in viral titer in lung treated orally QD 1 hr prior infection until 3 day post infection by plaque assay; type: functional, organism-based; details: dose 1-100 mg/kg, route po
[26] = Cmax in Sprague-Dawley rat at 5 mg/kg, po measured upto 24 hrs by LC-MS/MS analysis; type: ADME, organism-based; details: in vivo
[27] = Oral bioavailability in Sprague-Dawley rat at 5 mg/kg measured upto 24 hrs by LC-MS/MS analysis; type: ADME, organism-based; details: in vivo
Human orthopneumovirus [28] = assay: In vivo antiviral activity against Human respiratory syncytial virus (RSV) M37 infected in lamb model assessed as lung histopathology score at 1 to 4 mg/kg, po QD from 1 until 5 day post infection by H and E staining based assay; type: functional, organism-based; details: dose 1-4 mg/kg
[29] = Volume of distribution at steady state in Sprague-Dawley rat at 1.25 mg/kg, iv measured upto 24 hrs by LC-MS/MS analysis; type: ADME, organism-based; details: in vivo, read-out: Vdss
[30] = Volume of distribution at steady state in Balb/c mouse at 2.5 mg/kg, iv measured upto 24 hrs by LC-MS/MS analysis; type: ADME, organism-based; details: in vivo, read-out: Vdss
[31] = AUC (0 to last) in Balb/c mouse at 10 mg/kg, po measured upto 24 hrs by LC-MS/MS analysis; type: ADME, organism-based; details: in vivo
[32] = Plasma protein binding in human assessed as free fraction; type: ADME, cell-free
[33] = Oral bioavailability in Balb/c mouse at 10 mg/kg measured upto 24 hrs by LC-MS/MS analysis; type: ADME, organism-based; details: in vivo
[34] = Metabolic stability in dog hepatocytes assessed as intrinsic clearance per 10^6 cells at 1 uM measured upto 180 mins by LC-MS/MS analysis; type: ADME, cell-based, Canis lupus familiaris, Hepatocyte; details: read-out: CLH
Human orthopneumovirus [35] = assay: In vivo antiviral activity against Human respiratory syncytial virus (RSV) M37 infected in lamb model assessed as reduction in viral RNA level in lung at 0.25 to 4 mg/kg, po QD from 1 until 5 day post infection by qRT-PCR analysis; type: functional, organism-based; details: dose 0.25-4 mg/kg
[36] = Volume of distribution at steady state in Beagle dog at 0.5 mg/kg, iv measured upto 24 hrs by LC-MS/MS analysis; type: ADME, organism-based, Canis lupus familiaris; details: in vivo, read-out: Vdss
[37] = Half life in Balb/c mouse at 2.5 mg/kg, iv measured upto 24 hrs by LC-MS/MS analysis; type: ADME, organism-based; details: in vivo
[38] = Lipophilicity, logD of the compound; type: physicochemical; details: octanol/water
[39] = Ratio of drug concentration in Sprague-Dawley rat lung to plasma at 5 mg/kg, po measured upto 24 hrs by LC-MS/MS analysis; type: ADME, organism-based
[40] = Cmax in Beagle dog at 0.5 mg/kg, po measured upto 24 hrs by LC-MS/MS analysis; type: ADME, organism-based, Canis lupus familiaris; details: in vivo
[41] = AUC (0 to last) in Sprague-Dawley rat at 5 mg/kg, po measured upto 24 hrs by LC-MS/MS analysis; type: ADME, organism-based; details: in vivo
[42] = Inhibition of human RSV-A strain Memphis 37 RNA polymerase; set-up: species or system Human respiratory syncytial virus A
[43] = test system: Respiratory syncytial virus; assay: Antiviral activity against Respiratory syncytial virus (RSV) infected in human APC-126 cells assessed as replicon by measuring protein adjusted effective concentration in the presence of 40% human serum measured after 3 days by Renilla Glo assay; type: functional, organism-based; details: 72 h

- bioavailability [2]: 81%
- half-life [5]: 255 min
- AUC(0-t) at 24 h [6]: 1200 ng·h/mL
- Papp A→B at 1 h, 5 µM [7]: 9.8 ×10⁻⁶ cm/s
- clearance [8]: 5.62 mL/min/kg
- IC50 [9]: 0.29 nM
- hepatocyte CLint at 1 µM [11]: 27 µL/min/1e6 cells
- Fu [12]: 0.87%
- hepatocyte CLint at 1 µM [13]: < 1.9 µL/min/1e6 cells
- clearance [15]: 8.03 mL/min/kg
- clearance [16]: 10.6 mL/min/kg
- hepatocyte CLint at 1 µM [18]: 6.2 µL/min/1e6 cells
- Cmax [19]: 1730 ng/mL
- half-life [20]: 189 min
- Fu [21]: 0.45%
- EC50 [22]: 0.82 nM
- efflux ratio (P-glycoprotein): > 93
- Fu [24]: 0.13%
- Cmax [26]: 401 ng/mL
- bioavailability [27]: 20%
- Vd [29]: 1.04 L/kg
- Vd [30]: 1.68 L/kg
- AUC(0-t) at 24 h [31]: 9580 ng·h/mL
- Fu [32]: 0.66%
- bioavailability [33]: 61%
- hepatocyte CLint at 1 µM [34]: 6.4 µL/min/1e6 cells
- Vd [36]: 1.49 L/kg
- half-life [37]: 117 min
- logD [38]: 3.55
- Kp at 24 h [39]: 1
- Cmax [40]: 249 ng/mL
- AUC(0-t) at 24 h [41]: 2100 ng·h/mL
- IC50 [42]: 0.3 nM
- EC50 [43]: 13 nM
Compound: COc1cc(C(=O)NC[C@](O)(c2cc(C(C)(C)O)c(F)c(-c3ccc(F)cc3)n2)C(F)(F)F)cc2cc(C)nnc12
- Activity (Human orthopneumovirus [1]): Dose-Dependent Effect
- Activity (Human orthopneumovirus [3]): Active
- Activity (Human orthopneumovirus [4]): Dose-Dependent Effect
- CC50 at 72 h [10]: 27.7 µM
- Activity (Human orthopneumovirus [14]): Active
- Activity (Human orthopneumovirus [17]): Active
- Activity (Human orthopneumovirus [23]): Dose-Dependent Effect
- Activity (Human orthopneumovirus [25]): Dose-Dependent Effect
- Activity (Human orthopneumovirus [28]): Active
- Activity (Human orthopneumovirus [35]): Active
